Test results reported in paper PMC6882462 (Journal of Enzyme Inhibition and Medicinal Chemistry, 2019).
Where two headings read alike, the source gives them in different places.

Experiments:
[1] = test system: human breast carcinoma cell line MCF-7; test: MTT antiproliferative assay against MCF-7; format: cell-based; conditions: read-out: IC50 (anticancer activity against MCF-7 cell line)
Procedure: All the synthesised naphthalene-chalcone derivatives 3a–3t were evaluated for their anticancer activity by 3-[4,5-dimethylthiazole-2-yl]-2,5-diphenyltetrazolium bromide (MTT) assay method against human breast carcinoma cell line MCF-7. Cisplatin was used as a reference drug. […]. […]
culture, the culture medium was removed, and cells were incubated with tetrazolium dye [3-(4,5-dimethylthiazol-2-yl)-2,5-diphenyltetrazo-lium bromide (MTT) solution for 4 h. Then, the supernatant was removed and the precipitates (formazan crystal) were […]
dissolved in DMSO. […]

tubulin = test: In vitro tubulin polymerisation inhibitory assay; format: biochemical
Procedure: 1.3 In vitro tubulin polymerization assay
To evaluate the eﬀect of the compound 3a on tubulin assembly in vitro, varying
DMSO were incubated with purified tubulin protein in PEM buffer [100 mM PIPES
(1,4-Piperazinediethanesulfonic acid), 1 mM MgCl2, and 1 mM EGTA(ethylene glycol
tetraacetic acid)] containing 1 mM GTP and 5 % glycerol. […]

MCF-7 cells [2] = test: Cell cycle analysis by flow cytometry (PI); format: cell-based, human; conditions: 2.0 µM, 24 h
Source text: Many studies have reported that tubulin polymerisation inhibitors can arrest cancer cells in G2/M phase and lead to apoptosis[24]^,[25]. The potent tubulin polymerisation inhibitory activity of compound 3a promoted us to further investigate its cellular mechanisms of action in MCF-7 cancer cells by using flow cytometry analysis. In order to elucidate the molecular mechanism of compound 3a, we first studied its effect on cell cycle progression in MCF-7 cells. […] In contrast, after treatment of MCF-7 cells with compound 3a at concentrations of 2.0 µM, the accumulation of cancer cells was detected at G2/M phase by 5.5 folds compared to the control group, from 15.19% in the control group to 84.55% in the compound 3a treated group (Figure 4). […]
MCF-7 cells were seeded in 6-well plates and incubated at 37 °C for overnight and treatment with DMSO or compound 3a (0.5, 2.0 and 10.0 μM) for 24 h. The cells were washed twice with PBS, and incubated for 0.5 h at 37 °C in a PBS solution containing 1 mg/mL RNase A and propidium iodide (PI). C ell cycle was analyzed by flow cytometry (TASC240, USA).

MCF-7 cells [3] = test: Annexin V FITC/PI apoptosis assay; format: cell-based, human; conditions: 2.0 µM, 24 h
Procedure: To investigate whether compound 3a could induces apoptosis, the apoptotic effect of compound 3a and DMSO (control) were evaluated by an annexin V FITC/PI (AV/PI) dual staining assay. After treatment MCF-7 cells with compound 3a at the concentration of 2.0 µM for 24 h, the cells were labelled with the two dyes and analysed by flow cytometry. […] In addition, an increase in the early/primary apoptosis was also observed from 1.85% to 20.0% (Figure 4).
MCF-7 cells were grown in 6-well plates and treated with compound 3a (0.5, 2.0 and
10.0 μM) or DMSO for 24 h. After treatment, the cells were collected and stained with
PI (propidium iodide) for 20 min. Apoptosis was analyzed using a flow cytometer. […]

in vitro = conditions: human
xenografted tumour = test system: xenografted tumour; design: method as in PMID 24308485; conditions: cited from earlier work
SW620 colon cancer cells = test system: SW620 colon cancer cells; design: method as in PMID 25193463; conditions: cited from earlier work

COc1ccc2ccccc2c1C(=O)/C=C/c1ccccc1Br [3d]
IC50 ([1]; Homo sapiens, MCF7, 48 h): 7.63 ± 0.45 µM
melting point: 150 to 152 °C

COc1ccc2ccccc2c1C(=O)/C=C/c1ccc(Br)cc1 [3b]
IC50 ([1]; Homo sapiens, MCF7, 48 h): 4.1 ± 0.25 µM
melting point: 127 to 129 °C

N.N.[Cl][Pt][Cl] [Cisplatin, reference compound]
IC50 ([1]; 48 h): 15.2 ± 1.27 µM

COc1cc(OC)c(OC)cc1/C=C/C(=O)c1c(OC)ccc2ccccc12 [3l]
IC50 ([1]; Homo sapiens, MCF7, 48 h): 7.68 ± 0.32 µM
melting point: 147 to 149 °C

COc1ccc(/C=C/C(=O)c2c(OC)ccc3ccccc23)cc1O [3a]
IC50 ([1]; Homo sapiens, MCF7, 48 h): 1.42 ± 0.15 µM
inhibition of tubulin polymerisation (tubulin; 3.0 µM): 21%
inhibition of tubulin polymerisation (tubulin; 6.0 µM): 41%
inhibition of tubulin polymerisation (tubulin; 12.5 µM): 60%
inhibition of tubulin polymerisation (tubulin; 25 µM): 82%
IC50 (tubulin; purified tubulin, absorbance 340 nm, read-out: IC50 tubulin polymerisation inhibition): 8.4 µM
accumulation of cells at G2/M phase compared to control (MCF-7 cells [2]): 5.5 folds
cells in G1 phase (MCF-7 cells [2]): 0.04%
cells in S phase (MCF-7 cells [2]): 15.41%
cells in G2/M phase (MCF-7 cells [2]; control 15.19%): 84.55%
Q1 cell fraction (MCF-7 cells [3]): 1.95%
Q4 cell fraction (MCF-7 cells [3]): 71.7%
late/secondary cellular apoptosis (Q2) (MCF-7 cells [3]; control 0.68%): 6.34%
early/primary apoptosis (Q3) (MCF-7 cells [3]; control 1.85%): 20.0%
IC50 (in vitro): 18.3 ± 1.3 µM

COc1ccc2ccccc2c1C(=O)/C=C/c1cccc2ccccc12 [3e]
IC50 ([1]; Homo sapiens, MCF7, 48 h): 7.13 ± 0.33 µM
melting point: 162 to 163 °C

COc1ccc2ccccc2c1C(=O)/C=C/c1ccc(Cl)cc1 [3k]
IC50 ([1]; Homo sapiens, MCF7, 48 h): 4.74 ± 0.19 µM
melting point: 142 to 143 °C

COc1ccc(/C=C/C(=O)c2c(OC)ccc3ccccc23)cc1[N+](=O)[O-] [3i]
IC50 ([1]; Homo sapiens, MCF7, 48 h): 7.82 ± 0.35 µM
melting point: 157 to 159 °C

CCN(CC)c1ccc(/C=C/C(=O)c2c(OC)ccc3ccccc23)cc1 [3s]
IC50 ([1]; Homo sapiens, MCF7, 48 h): 7.62 ± 0.3 µM
melting point: 142 to 144 °C

COc1ccc2ccccc2c1C(=O)/C=C/c1cccc(F)c1 [3o]
IC50 ([1]; Homo sapiens, MCF7, 48 h): 7.11 ± 0.47 µM
melting point: 142 to 143 °C

COc1ccccc1/C=C/C(=O)c1c(OC)ccc2ccccc12 [3q]
IC50 ([1]; Homo sapiens, MCF7, 48 h): 7.67 ± 0.39 µM
melting point: 124 to 126 °C

COc1ccc(C(=O)/C=C/c2cccc3ccccc23)c(O)c1 [HymnPro, 2-hydroxy-4-methoxy-2′,3′-benzochalcone]
effect on xenografted tumour growth (xenografted tumour): suppressed xenografted tumour growth

COc1cc(/C=C/C(=O)c2c(OC)ccc3ccccc23)cc(OC)c1OC [3p]
IC50 ([1]; Homo sapiens, MCF7, 48 h): 7.23 ± 0.38 µM
melting point: 113 to 114 °C

COc1ccc(/C=C/C(=O)c2c(OC)ccc3ccccc23)cc1N [3t]
IC50 ([1]; Homo sapiens, MCF7, 48 h): 2.75 ± 0.26 µM

COc1ccc2ccccc2c1C(=O)/C=C/c1cccs1 [3j]
IC50 ([1]; Homo sapiens, MCF7, 48 h): > 10 µM
melting point: 149 to 150 °C

COc1cc(OC)c(/C=C/C(=O)c2c(O)ccc3ccccc23)c(OC)c1 [HMNC-74]
inhibition of clonogenicity (SW620 colon cancer cells): strongly inhibited

COc1cccc(/C=C/C(=O)c2c(OC)ccc3ccccc23)c1 [3h]
IC50 ([1]; Homo sapiens, MCF7, 48 h): 6.67 ± 0.25 µM
melting point: 109 to 110 °C

COc1ccc2ccccc2c1C(=O)/C=C/c1ccc2ccccc2c1 [3f]
IC50 ([1]; Homo sapiens, MCF7, 48 h): 6.87 ± 0.26 µM
melting point: 107 to 109 °C

COc1ccc(/C=C/C(=O)c2c(OC)ccc3ccccc23)cc1Br [3g]
IC50 ([1]; Homo sapiens, MCF7, 48 h): 7.11 ± 0.4 µM
melting point: 168 to 169 °C

COc1ccc2ccccc2c1C(=O)/C=C/c1ccccc1F [3m]
IC50 ([1]; Homo sapiens, MCF7, 48 h): 6.66 ± 0.27 µM

COc1ccc(/C=C/C(=O)c2c(OC)ccc3ccccc23)c(OC)c1OC [3c]
IC50 ([1]; Homo sapiens, MCF7, 48 h): > 10 µM
melting point: 107 to 108 °C

COc1ccc2ccccc2c1C(=O)/C=C/c1ccc(N(C)C)cc1 [3r]
IC50 ([1]; Homo sapiens, MCF7, 48 h): 8.91 ± 0.52 µM
melting point: 147 to 148 °C

COc1ccc2ccccc2c1C(=O)/C=C/c1ccccc1 [3n]
IC50 ([1]; Homo sapiens, MCF7, 48 h): 7.62 ± 0.36 µM
melting point: 142 to 144 °C
